Data taken from US20040235717A1, “Suppression of androgen receptor transactivation through new pathways to ar and ar coactivators and repressors” (priority 2001, published 2004).
Entries after “also recorded” stand apart in the source; their conditions may differ.

Key:
[1] = tested on: AR protein stability; test: Pulse-chase labeling of AR in COS-1 cells; assay type: cell-based; details: LY294002 20 μM
Experimental: 30. […] The cells were harvested for Western blot analysis. […] Western blot analysis was performed and AR and PTEN were detected by AR antibody or PTEN antibody. (C) PTEN-C1 cells were treated with 4 μg/ml Dox in 10% CDS media for 48 h. Total RNA was prepared and Northern blot analysis was performed using [^32P]-dCTP-labeled AR (aa, 1-389) as a probe. (D) COS-1 cells were transfected with AR along with pCDNA3 or PTEN in 10% CDS media for 16 h. […] The cell extracts were immunoprecipitated with AR antibody and subjected to SDS-PAGE followed by autoradiography. Data were from three identical results. (E) COS-1 cells were transfected with AR along with pCDNA3 or dAkt in 10% CDS media for 16 h, pulsed with [^35S]-methionine for 45 min, and then harvested at different chase times as indicated. LY294002 (20 μM) was added 2 h before pulsing with [^35S]-methionine.
317. Pulse-chase experiments were performed as described (Lo et al. (1999) Nat Cell Biol 1, 472-8) with some modifications. Briefly, COS-1 cells were transfected with pSG5-AR in combination with pCDNA3 or pCDNA3 PTEN in 10% CDS media for […]. Cells were grown under serum starvation conditions for 2 h in methionine/cysteine-deficient medium, and then the cells were pulsed for 45 min with 200 μCi/ml [^35S]-methionine/cysteine (NEN). […]

[2] = target: T1, interaction between AR and ARA70 (Homo sapiens, UniProt P10275); test: Mammalian two-hybrid assay GAL4-ARA70 / VP16-AR in DU145 cells (pG5CAT); assay type: cell-based; details: 1 nM DHT
T1 construct: VP16 fused to the AR aa 36-918 (VP16-AR); expressed in transfected cells; host or cells: DU145
T1 sequence (P10275 36-920): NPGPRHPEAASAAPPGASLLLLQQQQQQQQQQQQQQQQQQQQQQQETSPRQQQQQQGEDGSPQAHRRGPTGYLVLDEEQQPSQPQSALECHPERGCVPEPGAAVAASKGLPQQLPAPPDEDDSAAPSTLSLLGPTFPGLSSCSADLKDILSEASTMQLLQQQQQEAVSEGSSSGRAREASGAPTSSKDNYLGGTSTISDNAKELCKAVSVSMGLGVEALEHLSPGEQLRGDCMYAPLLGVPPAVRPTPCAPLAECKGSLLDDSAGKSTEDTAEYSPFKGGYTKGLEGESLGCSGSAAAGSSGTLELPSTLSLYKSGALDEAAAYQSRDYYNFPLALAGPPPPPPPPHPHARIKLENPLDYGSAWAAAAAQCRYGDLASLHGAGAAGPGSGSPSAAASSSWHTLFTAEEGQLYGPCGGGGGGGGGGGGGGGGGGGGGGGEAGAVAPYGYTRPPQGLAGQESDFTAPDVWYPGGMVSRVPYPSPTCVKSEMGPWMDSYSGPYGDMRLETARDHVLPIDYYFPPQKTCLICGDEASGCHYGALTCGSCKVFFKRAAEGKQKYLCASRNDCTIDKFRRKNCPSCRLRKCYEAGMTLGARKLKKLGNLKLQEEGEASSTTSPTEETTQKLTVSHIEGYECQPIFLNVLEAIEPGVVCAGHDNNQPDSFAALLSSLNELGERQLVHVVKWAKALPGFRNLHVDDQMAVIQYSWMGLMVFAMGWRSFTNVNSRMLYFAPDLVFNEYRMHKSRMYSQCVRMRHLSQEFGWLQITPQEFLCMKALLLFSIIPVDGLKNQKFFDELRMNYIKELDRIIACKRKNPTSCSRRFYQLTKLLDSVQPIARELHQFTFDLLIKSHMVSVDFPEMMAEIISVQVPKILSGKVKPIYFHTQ
Description: 257. […] Onate, S. A. et al., Science 270, 1354-1357 (1995); Voegel, J. J. et al., EMBO J. 15, 3667-3675 (1996); Yeh, S. et al., Proc. Natl. Acad. Sci. USA 93, 5517-5521(1996); Yeh, S. et al., Proc. Natl. Acad. Sci. USA 95, 5527-5532 (1998); Fujimoto, N. et al., J. BioI. Chem. 274, 8316-8321 (1999); Miyamoto, H. et al., Proc. Natl. Acad. Sci. USA 95 11083-11088 (1998); Kang, H. Y. et al., J. BioI. Chem. 274, 8570-8576 (1999); Yeh, S. et al., Biochem. Biophys. Res. Commun. 248, 361-367 (1998). […] Yeh, S. et al., Proc. Natl. Acad. Sci. USA 93, 5517-5521(1996); Yeh, S. et al., Proc. Natl. Acad. Sci. USA 95, 5527-5532 (1998). […] The interaction between AR and ARA70 was determined by CAT assay using pG5CAT as reporter. […] In contrast, the addition of […] between the AR and ARA70 (FIG. 4a, lane 2 vs 5 and lane 6 vs 8). Similar repression effects also occurred when we replaced ARA70 with other AR coactivators, such as ARA54 or TIF2. Kang, H. Y. et al., J. BioI. Chem. 274, 8570-8576 (1999); Voegel, J. J. et al., EMBO J. 15, 3667-3675 (1996). cAkt and dAkt, however, had very little effect on the interaction between GAL4 fused AR-LBD653-918 and VP16-ARA 70 (VP16 fused ARA70), VP16-ARA54, or VP16-TIF2.
GAL4DBD fused to ARA70 aa 176-401 (GAL4-ARA70), and VP16 fused to the AR aa 36-918 (VP16-AR) were transfected into DU145 cells in the presence or absence of cAkt, dAkt, and LY294002.

**Q.** What does the source list for “dAkt: dominant-negative Akt, a kinase deficient mutant, K179A”?
**A.** AR degradation [1]: did not promote AR degradation; Interaction between AR and ARA70 (CAT activity) [2]: further enhanced the interaction of AR and ARA70; also recorded: further enhanced the interaction between the AR and ARA70
